According to the supplement of paper PMC10307832:

Key:
Experiment in all cases: relative viability (nuclei count vs DMSO), 5 days (fraction); higher = more cells survive
[1] = compound: CN(c1ncccc1CNc1nc(Nc2ccc3c(c2)CC(=O)N3)ncc1C(F)(F)F)S(C)(=O)=O + Nc1nc2[nH]cc(CCc3ccc(C(=O)N[C@@H](CCC(=O)O)C(=O)O)cc3)c2c(=O)[nH]1 [Pemetrexed] (partner 0.2 µM)
Summary of the method: (§1)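 Dosing by pin tool came one day after lung cancer cell lines were seeded in 1536-well plates, using either one drug or a fixed anchor-drug dose plus five library-drug doses (not always all listed) in √10 steps. After 5 days, nuclei were counted on 4× images. Relative viability is treated-well nuclei count divided by vehicle-well nuclei count, and values are medians of duplicate plates.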

[2] = compound: CN(c1ncccc1CNc1nc(Nc2ccc3c(c2)CC(=O)N3)ncc1C(F)(F)F)S(C)(=O)=O + Cc1nc(NC(=O)N2CCC[C@H]2C(N)=O)sc1-c1ccnc(C(C)(C)C(F)(F)F)c1 [Alpelisib] (partner 2 µM)
Summary of the method: as §1

[3] = compound: CN(c1ncccc1CNc1nc(Nc2ccc3c(c2)CC(=O)N3)ncc1C(F)(F)F)S(C)(=O)=O + CC(C)C[C@H](NC(=O)[C@H](Cc1ccccc1)NC(=O)c1cnccn1)B(O)O [Bortezomib] (partner 0.002 µM)
Summary of the method: as §1

[4] = compound: CN(c1ncccc1CNc1nc(Nc2ccc3c(c2)CC(=O)N3)ncc1C(F)(F)F)S(C)(=O)=O + O=C(c1cc(Cc2n[nH]c(=O)c3ccccc23)ccc1F)N1CCN(C(=O)C2CC2)CC1 [Olaparib] (partner 8 µM)
Summary of the method: as §1

Row | Cell Line | relative viability ([1]; first compound 0.01 µM) | relative viability ([1]; first compound 0.03162 µM) | relative viability ([1]; first compound 0.1 µM) | relative viability ([1]; first compound 0.3162 µM) | relative viability ([1]; first compound 1 µM) | relative viability ([2]; first compound 0.01 µM) | relative viability ([2]; first compound 0.03162 µM) | relative viability ([2]; first compound 0.1 µM) | relative viability ([2]; first compound 0.3162 µM) | relative viability ([2]; first compound 1 µM) | relative viability ([3]; first compound 0.01 µM) | relative viability ([3]; first compound 0.03162 µM) | relative viability ([3]; first compound 0.1 µM) | relative viability ([3]; first compound 0.3162 µM) | relative viability ([3]; first compound 1 µM) | relative viability ([4]; first compound 0.01 µM) | relative viability ([4]; first compound 0.03162 µM) | relative viability ([4]; first compound 0.1 µM) | relative viability ([4]; first compound 0.3162 µM) | relative viability ([4]; first compound 1 µM)
1 | HARA | 0.255 | 0.248 | 0.199 | 0.258 | 0.223 | 0.733 | 0.79 | 0.744 | 0.695 | 0.625 | 1.12 | 1.07 | 1.13 | 1.2 | 1.09 | 0.895 | 0.75 | 0.685 | 1.1 | 0.9
2 | HCC-15 | 0.22 | 0.237 | 0.218 | 0.21 | 0.215 | 0.849 | 0.892 | 0.819 | 0.785 | 0.779 | 1.04 | 1 | 0.898 | 0.88 | 0.829 | 0.778 | 0.799 | 0.713 | 0.661 | 0.619
3 | IA-LM |  |  |  |  |  | 0.631 | 0.884 | 0.637 | 0.649 | 0.688 | 0.807 | 0.886 | 0.727 | 0.877 | 0.666 | 0.758 | 0.959 | 0.802 |  | 0.66
4 | LK-2 | 0.309 | 0.28 | 0.252 | 0.251 | 0.29 | 0.955 | 1.35 | 0.927 | 0.959 | 1.08 |  |  |  |  |  | 0.807 | 0.846 | 0.615 | 0.639 | 0.542
5 | NCI-H358 | 0.148 | 0.164 | 0.169 | 0.177 | 0.156 | 1.03 | 0.824 | 0.737 | 0.753 | 0.669 |  |  |  |  |  | 0.61 | 0.57 | 0.573 | 0.532 | 0.416
6 | NCI-H727 |  |  |  |  |  | 0.638 | 0.606 | 0.565 | 0.448 | 0.444 | 0.897 | 1 | 0.73 | 0.765 | 0.731 | 0.776 | 0.707 | 0.77 | 0.635 | 0.715
7 | NCI-H1299 |  |  |  |  |  | 1.05 | 1.02 | 1.01 | 1.04 | 1.05 | 1.05 | 1.01 | 1.04 | 0.996 | 1.02 | 0.96 | 1.04 | 0.991 | 0.948 | 0.955
8 | NCI-H1395 | 1 | 0.882 | 0.865 | 0.98 | 0.909 | 0.996 | 1.08 | 0.997 | 1.06 | 1.06 |  |  |  |  |  | 0.454 | 0.484 | 0.492 | 0.457 | 0.471
9 | NCI-H1563 | 0.815 | 0.772 | 0.84 | 0.772 | 0.773 | 0.867 | 1.03 | 0.897 | 0.917 | 0.933 | 0.906 | 0.808 | 0.849 | 0.867 | 0.876 |  |  |  |  | 
10 | NCI-H1648 | 0.66 | 0.707 | 0.604 | 0.694 | 0.422 |  |  |  |  |  |  |  |  |  |  | 0.874 | 0.886 | 0.918 | 0.48 | 0.46
11 | NCI-H1650 | 0.379 | 0.321 | 0.432 | 0.384 | 0.318 |  |  |  |  |  | 0.229 | 0.196 | 0.232 |  | 0.192 | 0.753 | 0.783 | 0.784 | 0.672 | 0.675
12 | NCI-H1703 |  |  |  |  |  | 0.329 | 0.419 | 0.321 | 0.345 | 0.294 | 0.311 | 0.295 | 0.415 | 0.481 | 0.235 | 0.393 | 0.388 | 0.368 | 0.526 | 0.389
13 | NCI-H1793 | 1.05 | 0.912 | 0.934 | 0.919 | 0.931 | 0.77 | 0.765 | 0.611 | 0.674 | 0.659 |  |  |  |  |  | 0.88 | 0.685 | 0.777 | 0.948 | 0.769
14 | NCI-H1944 | 0.642 | 0.612 | 0.646 | 0.592 | 0.613 | 0.742 | 0.955 | 0.805 | 0.86 | 0.918 |  |  |  |  |  | 0.402 | 0.421 | 0.416 | 0.436 | 0.42
15 | NCI-H2170 | 0.305 | 0.268 | 0.269 | 0.266 | 0.274 | 0.762 | 0.874 | 0.862 |  | 0.786 |  |  |  |  |  | 0.684 | 0.652 | 0.672 | 0.604 | 0.521
16 | NCI-H2342 | 0.775 | 0.885 | 0.801 | 0.789 | 0.757 |  |  |  |  |  |  |  |  |  |  | 0.494 | 0.503 | 0.471 | 0.352 | 0.398
17 | SK-MES-1 | 0.968 | 0.894 | 0.882 | 0.904 | 0.762 | 0.915 | 0.926 | 0.843 | 0.882 | 0.712 |  |  |  |  |  | 0.718 | 0.76 | 0.731 | 0.538 | 0.499
18 | SW 900 | 0.49 | 0.459 | 0.477 | 0.484 | 0.51 |  |  |  |  |  |  |  |  |  |  | 0.867 | 1.09 | 1.01 | 0.722 | 0.718
